± gives the expanded uncertainty stated by the source.
Details: Liquid; for Critical pressure: Direct measurement; for Critical temperature: Pulse Heating

Compound | Critical pressure | Critical temperature
CCCC[c-]1cccc1.[Fe+2].c1cc[cH-]c1 [butylferrocene] | 2180 ± 180 kPa | 784 ± 24 K
O=C(c1ccccc1)c1ccc[cH-]1.[Fe+2].c1cc[cH-]c1 [benzoylferrocene] | 1590 ± 120 kPa | 886 ± 26 K
[CH]1C=CC=C1.[CH]1C=CC=C1.[Fe] [ferrocene] | 3610 ± 200 kPa | 785 ± 16 K
CC(=O)c1ccc[cH-]1.[Fe+2].c1cc[cH-]c1 [acetylferrocene] | 3280 ± 260 kPa | 847 ± 26 K
